Measured values from US20240140950A1, “NITROGEN-CONTAINING POLYCYCLIC AROMATIC COMPOUND, and PREPARATION METHOD AND APPLICATION THEREOF” (priority 2021, published 2024).
Like-named read-outs stand apart in the source and are kept apart here.

Tests used:
cancer cell MCF-7 = assay: MTT cell inhibition assay, MCF-7; format: cell-based
Description: (§4) Two cancer cell lines HELA and MCF-7 in the logarithmic phase and the human normal cell line 293T are taken and the cells thereof are counted with a cell counting plate, and then the concentration of the cell suspension is adjusted to 10^5 cells/mL. The cells are inoculated into a 96-well plate with 100 μL of cell suspension for each well. After the cell suspension is evenly distributed, and the plate is placed into a CO2 incubator for incubation. […] For each drug to be tested and control groups, 100 μL of the drug to be tested is added to each well; and four parallel replicates are set for each concentration. After 48 h cultivation, 10 μL MTT is added for another 4 h cultivation, and the supernatant is discarded. 100 μL analytically pure dimethyl sulfoxide is added, and shaken evenly on a shaking table. After the solution is completely uniform, its absorbance is measured at a wavelength of 490 nm with a microplate reader. The experiment is repeated twice.

[1] = test system: human triple negative breast cancer MDA-MB-231; assay: CCK-8 cell survival assay, MDA-MB-231; format: cell-based; conditions: CCK-8, 48 h, read-out: IC50 value of the inhibition on MDA-MB-231
Description: (§1) a. […] Reagents • CCK8 reagent kit, purchased from TargetMol China; Annexin V-FITC/PI double staining cell apoptosis detection kit, purchased from Seven Biotech Company. c. Instruments • Multi-function microplate reader FLUOstar Omega, purchased from BMG LABTECH, Germany; • Flow cytometer, purchased from BD Company, United States. d. Experimental Method
(§2) The cells in logarithmic phase with good condition are taken and digested with trypsin, and the prepared culture medium is added to prepare a cell suspension, the cell density being adjusted to 5×10^4 cells/mL. The digested cells are inoculated into a 96-well plate, in which 100 μL of cell suspension is added to each well, and incubated overnight in a cell incubator at 37° C. with 5% CO2. After the cells grow adhered to the wall, the blank control group and the compound groups to be tested with different concentration gradients are set up respectively. […] The optical density value (OD) is measured by using a multifunctional enzyme-linked immunosorbent assay instrument, the wavelength setting to 450 nm. The experiment is repeated for three times, the cell survival rates of different drug concentrations in each group are calculated and counted according to a formula: cell survival rate=(experimental group−blank control group/control group)×100%, and the results are calculated with GraphPad Prism software.

cancer cell HELA = assay: MTT cell inhibition assay, HELA; format: cell-based; conditions: 48 h
Description: as §4

[2] = test system: human lung cancer cell A549; assay: CCK-8 cell survival assay, A549; format: cell-based; conditions: CCK-8, 48 h, read-out: IC50 value of the inhibition on A549
Description: as §1, §2

human melanoma A375 = assay: CCK-8 cell survival assay, A375; format: cell-based; conditions: CCK-8, 48 h, read-out: IC50 value of the inhibition on A375
Description: as §1, §2

human normal cell 293T = assay: MTT cytotoxicity assay, human normal cell 293T; format: cell-based; conditions: 48 h, read-out: IC50 value of the inhibition on human normal cell 293T
Description: Two cancer cell lines HELA and MCF-7 in the logarithmic phase and the human normal cell line 293T are taken and the cells thereof are counted with a cell counting plate, and then the concentration of the cell suspension is adjusted to 10^5 cells/mL. The cells are inoculated into a 96-well plate with 100 μL of cell suspension for each well. After the cell suspension is evenly distributed, and the plate is placed into a CO2 incubator for incubation. The drug to be tested is added after the cells grow uniformly and have spread on all the bottom of the culture dish. DMEM culture solution is used as a negative control group (the drug to be tested is completely dissolved in the culture solution without dissolving it in DMSO), and cisplatin is used as a positive control group. For each drug to be tested and control groups, 100 μL of the drug to be tested is added to each well; and four parallel replicates are set for each concentration. After 48 h cultivation, 10 μL MTT is added for another 4 h cultivation, and the supernatant is discarded. 100 μL analytically pure dimethyl sulfoxide is added, and shaken evenly on a shaking table. After the solution is completely uniform, its absorbance is measured at a wavelength of 490 nm with a microplate reader. The experiment is repeated twice.

mouse myeloma SP2/0 = assay: CCK-8 cell survival assay, SP2/0; format: cell-based; conditions: CCK-8, 48 h, read-out: IC50 value of the inhibition on SP2/0
Description: as §1, §2

[3] = test system: A549 Human lung cancer cell; assay: Flow cytometric detection of cell apoptosis (Annexin V-FITC/PI), A549; format: cell-based; conditions: 48 h
Description: (§3) The cells that are in logarithmic phase and have good condition are taken, digested with trypsin, the prepared culture medium is added to prepare a cell suspension, and the cell density is adjusted to 5×10^4 cells/mL. The digested cells are inoculated in 6-well plate, in which 2 mL cell suspension is added to each well, and incubated overnight in a cell incubator at 37° C. with 5% CO2. After the cells are adhered to the wall, a blank control group and the group of experimental drug to be tested with different concentration gradients are set respectively. 2 mL drug is added to each well for further cultivation for 48 h, and EDTA-free trypsin is used for cell digestion and the digested cells are collected. For the apoptosis detection, the collected cells are required to be adjusted to the cell density of 1×10^6 cells/mL, put into a 5 mL centrifuge tube and centrifuged at 1000 rpm for 5 min, and then washed with PBS for three times. 100 μL Binding Buffer is added to resuspend the cells, and except for the single-stained control and blank control cells, 5 μL FITC and 5 μL PI are added to each tube, mixed gently, and incubated at room temperature in the dark for 15 min. 400 μL Binding Buffer is added into each well before testing on the machine, and mixed and tested on the machine. • Blank control: drug-induced apoptotic cells—without adding a fluorescent reagent (the voltage of scattered light is adjusted to determine the FSC SSC of the population). • Negative control: normal cells (without drug treatment)—added with all the fluorescent staining reagents of the experiment (at the lower left corner, the voltage of the two fluorescent channels is determined). • Single-stained control: one tube each for FITC and PI, positive control for compensation adjustment: drug-induced apoptotic cells or heat-induced apoptotic cells are added with all fluorescent reagents of the experiment (confirming that there is no problem with reagents, instruments and operations).

SP2/0 Mouse myeloma = assay: Flow cytometric detection of cell apoptosis (Annexin V-FITC/PI), SP2/0; format: cell-based; conditions: for Apoptosis in early stage / Apoptosis in late stage: 48 h
Description: as §3

A375 Human melanoma = assay: Flow cytometric detection of cell apoptosis (Annexin V-FITC/PI), A375; format: cell-based; conditions: 48 h
Description: as §3

[4] = test system: MDA-MB-231 Human triple negative breast cancer; assay: Flow cytometric detection of cell apoptosis (Annexin V-FITC/PI), MDA-MB-231; format: cell-based; conditions: 48 h
Description: as §3

KM mice = assay: Mouse toxicity test (acute, intraperitoneal); format: in vivo
Source text: 12 KM mice with body weight 18 g to 22 g and age of 4 to 6 weeks are taken and fed adaptively for 7 days. All mice may eat freely and be provided with sufficient fresh drinking water. The feeding environment for mice meets the standard of SPF laboratory animal level environmental facility.
The behavioral changes after administration and death within 14 days of the animals are observed.

[5] = KM mice, 40 mg/kg intraperitoneal

## N.N.[Cl][Pt][Cl] [Cisplatin, cisplatin, reference compound]
Cancer cell MCF-7; 48 h
  IC50: 14.2 µM
[1]
  IC50: 23.4 ± 1.75 µM
Cancer cell HELA
  IC50: 13.2 µM
[2]
  IC50: 35.8 ± 1.89 µM
Human melanoma A375
  IC50: 16.4 ± 0.36 µM
Human normal cell 293T
  IC50: 17.3 µM
Mouse myeloma SP2/0
  IC50: 17.4 ± 1.24 µM

## COc1ccc2c(c1)C13CCNC1(C)C1(C)c4[nH]c5ccc(OC)cc5c4CCN1C3N2 (stereo not shown) [Compound 14]
[3]; A549, 10 μM
  Apoptosis in early stage: 4.12 ± 1.73%
  Apoptosis in late stage: 9.70 ± 1.18%
[3]; A549, 30 μM
  Apoptosis in early stage: 16.23 ± 0.90%
  Apoptosis in late stage: 16.08 ± 0.62%
[3]; A549, 60 μM
  Apoptosis in early stage: 41.28 ± 5.36%
  Apoptosis in late stage: 27.32 ± 1.22%
SP2/0 Mouse myeloma; SP2/0, 10 μM
  Apoptosis in early stage: 13.15 ± 0.57%
  Apoptosis in late stage: 13.44 ± 1.50%
SP2/0 Mouse myeloma; SP2/0, 20 μM
  Apoptosis in early stage: 35.97 ± 3.37%
  Apoptosis in late stage: 26.65 ± 1.64%
SP2/0 Mouse myeloma; SP2/0, 30 μM
  total apoptosis rate at early and late stages: 97%
  Apoptosis in early stage: 58.56 ± 1.26%
  Apoptosis in late stage: 39.36 ± 0.87%
A375 Human melanoma; A375, 10 μM
  Apoptosis in early stage: 27.41 ± 1.87%
  Apoptosis in late stage: 10.03 ± 1.87%
A375 Human melanoma; A375, 20 μM
  Apoptosis in early stage: 34.09 ± 3.2%
  Apoptosis in late stage: 13.17 ± 2.30%
[4]; MDA-MB-231, 15 μM
  Apoptosis in early stage: 9.21 ± 1.14%
  Apoptosis in late stage: 13.41 ± 1.24%
[4]; MDA-MB-231, 30 μM
  Apoptosis in early stage: 17.70 ± 3.31%
  Apoptosis in late stage: 16.33 ± 0.72%
[4]; MDA-MB-231, 45 μM
  Apoptosis in early stage: 20.83 ± 2.79%
  Apoptosis in late stage: 23.66 ± 1.70%
[1]; Homo sapiens, MDA-MB-231
  IC50: 26 ± 1.43 µM
KM mice; KM mice, 20 mg/kg intraperitoneal
  behavioral changes after administration: no abnormalities
KM mice; [5]
  behavior and spirit of the animals: normal
  death within 14 days: no death occurs
KM mice; KM mice, 60 mg/kg intraperitoneal
  death within 14 days: one animal dies on the sixth day
KM mice; KM mice, 80 mg/kg intraperitoneal
  death within 14 days: two animals die on the second day
KM mice; KM mice, intraperitoneal, single injection, 14 days observation
  lethal dose: about 60 mg/kg
KM mice; mouse, in vivo, ip, 20 mg/kg
  body weight / weight gain: not significantly different
KM mice; mouse, in vivo, ip, 40 mg/kg
  weight gain compared with the negative control group: slower
[2]; Homo sapiens, A549
  IC50: 30.8 ± 1.72 µM
Human melanoma A375; Homo sapiens, A-375
  IC50: 17.1 ± 1.45 µM
Mouse myeloma SP2/0; Mus musculus
  IC50: 15.1 ± 2.91 µM

## Cc1ccc2c(c1)C13CCNC1(C)C1(C)c4[nH]c5ccc(C)cc5c4CCN1C3N2 (stereo not shown) [Compound 15]
Cancer cell MCF-7; Homo sapiens, MCF7, 48 h
  IC50: 29.8 µM
Cancer cell HELA; Homo sapiens, HeLa
  IC50: 23.6 µM
Human normal cell 293T; Homo sapiens, HEK-293T
  IC50: 134 µM

## Cc1ccc2c(c1)C13CCNC1C1(C)c4[nH]c5ccc(C)cc5c4CCN1C3N2 (stereo not shown) [Compound 20]
Cancer cell HELA; Homo sapiens, HeLa
  IC50: 40.1 µM
